The results in this text go back to patent US7863014B2 (priority 2001, dated 2011).

For experiment [1], the target named is T1, Ppnk (Mycobacterium tuberculosis, UniProt P9WHV7). Description: Effect of NADP and ADP on NADP-producing activity of purified Ppnk. Type of experiment: biochemical, M. tuberculosis. The conditions noted are these: various levels of NADP or ADP. Here is the method: The NADP-producing activity was assayed in the presence of various levels of NADP (solid circles) or ADP (open circles).
T1 sequence (P9WHV7 whole entry, looked up): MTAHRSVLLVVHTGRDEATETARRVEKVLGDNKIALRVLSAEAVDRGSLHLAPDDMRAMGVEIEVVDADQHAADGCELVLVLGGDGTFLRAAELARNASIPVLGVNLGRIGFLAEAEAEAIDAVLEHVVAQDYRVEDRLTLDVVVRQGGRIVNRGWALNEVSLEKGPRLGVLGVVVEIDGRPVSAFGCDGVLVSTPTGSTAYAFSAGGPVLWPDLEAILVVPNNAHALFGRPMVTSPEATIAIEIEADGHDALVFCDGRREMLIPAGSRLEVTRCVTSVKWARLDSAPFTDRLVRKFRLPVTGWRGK
A reaction for producing NADP was performed in a reaction mixture solution (4.0 ml) at 37° C. with shaking. […] After the reaction for 1 hour, 10 μl of the reaction mixture was collected and enzymatically assayed for NADP using isocitrate dehydrogenase (Sigma-Aldrich Japan, Tokyo, Japan). The activity was expressed in μmol/g cells/hour.

Experiment [2] deals with T1, Ppnk.

For `Nc1ncnc2c1ncn2[C@@H]1O[C@H](COP(=O)(O)OP(=O)(O)O)[C@@H](O)[C@H]1O` [ADP], the “inhibition of polyphosphate-dependent NAD kinase activity of Ppnk” value in experiment [1] is “not inhibited”.
As for `[Cl-].[Cl-].[Mg+2]` [MgCl2], in experiment [2], the “Mg2+ concentration giving highest activity” value was 100 mM and the “effectiveness among metal ions (Mg2+, Mn2+, Ca2+)” value is on record as “most effective”.
